Legend:
Format in all cases: functional, Rattus norvegicus
[1] = Antagonistic activity towards NMDA receptor 1A/2A subtype was determined
[2] = Antagonistic activity towards NMDA receptor 1A/2B subtype was determined
[3] = Antagonistic activity towards NMDA receptor 1A/2C subtype was determined

Row | SMILES | IC50 [1] [µM] | IC50 [2] [µM] | IC50 [3] [µM]
1 | O=C(/C=C/c1ccc(Cl)cc1)NCCc1ccccc1 | > 300 | > 300 | > 300
2 | O=C(/C=C/c1ccc(Cl)cc1)NCCc1ccc(Cl)cc1 | 160 | > 300 | > 300
3 | O=C(/C=C/c1ccc(O)cc1)NCCc1ccc(O)cc1 [N-P-COUMAROYL TYRAMINE] | > 300 | 21 | 200
4 | O=C(/C=C/c1ccc(Cl)cc1)NCCc1ccc(O)cc1 | > 300 | 0.17 | > 300
5 | N#C/C(=C\C(=O)NCCc1ccc(O)cc1)c1ccc(Cl)cc1 | > 300 | 9 | > 300
6 | N#C/C(=C\c1ccc(Cl)cc1)C(=O)NCCc1ccc(O)cc1 | 78 | 3.4 | 105
7 | O=C(/C=C/c1ccccc1)NCCc1ccc(O)cc1 | > 300 | 0.68 | > 300
8 | O=C(/C=C/c1ccc(O)cc1)NCCc1ccc(Cl)cc1 | > 300 | 0.33 | > 300
9 | O=C(/C=C/c1ccc(Cl)cc1)NCCc1cccc(O)c1 | > 300 | 7.4 | 175

From ChEMBL document CHEMBL1130622, “N-(2-(4-hydroxyphenyl)ethyl)-4-chlorocinnamide: a novel antagonist at the 1A/2B NMDA receptor subtype” (Bioorg Med Chem Lett, 1998)
